How the values were obtained:
[1] = test system: patient suffering from hypogonadotropic hypogonadism; conditions: intranasal, daily administration of a low dose; cited from earlier work
[2] = intranasal; cited from earlier work
[3] = test system: normally menstruating females; conditions: 25 μg LH-RH each, double stimulation on three consecutive days, 12 females; cited from earlier work
male beagle dogs = experiment: Oromucosal (buccal) spray in male beagle dogs, testosterone response; format: in vivo; conditions: 0.5 mg oromucosal spray
Protocol: The GnRH analogue leuprorelin acetate (leuprolide acetate) which is available as an injectable, was reformulated as described in Example 3. This spray was administered to male beagle dogs at a dose of 0.5 mg suspended in 140 μl and dispensed in a single spray to the inner cheek of male beagle dogs (studies 1 and 2). In addition, formulation 2 was sprayed to the mucosae at the back of the throat in a separate study to determine if this would alter the absorption characteristics (study 3). The two formulations were administered with a one week washout period. Drug was dispensed in a single spray with a volume of 140 μl (studies 1 and 2) or three consecutive sprays (study 3). The aim of the study was to determine if leuprolide could be delivered as an oralmucosal spray and to determine the minimum exposure required to increase levels of testosterone.
The blood levels for leuprolide were monitored 15 minutes before the start of the study and at time “0” (immediately after drug administration), then at 15, 30 minutes and at 1, 2, 3 and 5 hours (postdosing; studies 1 and 2). In addition, for study 3, two additional time points were included at 5 and 10 min post dosing. […]
The study was conducted by the University Health Network in Toronto and specifically at the Toronto Western Hospital. Serum samples were analysed at Inventiv Health in Quebec City.

Q: Which testosterone [1] does the source give for `CCNC(=O)[C@@H]1CCCN1C(=O)[C@H](CCCNC(=N)N)NC(=O)[C@H](CC(C)C)NC(=O)[C@@H](COC(C)(C)C)NC(=O)[C@H](Cc1ccc(O)cc1)NC(=O)[C@H](CO)NC(=O)[C@H](Cc1c[nH]c2ccccc12)NC(=O)[C@H](Cc1cnc[nH]1)NC(=O)[C@@H]1CCC(=O)N1` [buserelin] here?
A: The testosterone was “chronic and sustained increase in testosterone”.

Q: What about the bioavailability [2] of the same compound?
A: The bioavailability was 3%.

Q: With “luteinizing hormone-releasing hormone (QHWSYGLRPG; Gonadoliberin-1; UniProt P01148 24-33, looked up) [LH-RH, Native or physiological GnRH, hormone secreted by the hypothalamus]” as the compound, how does the “serum LH levels” value [3] read?
A: The value was “Increases in serum LH levels were found after each of the two stimulations”.

Q: With `CCNC(=O)[C@@H]1CCCN1C(=O)[C@H](CCCNC(=N)N)NC(=O)[C@H](CC(C)C)NC(=O)[C@@H](CC(C)C)NC(=O)[C@H](Cc1ccc(O)cc1)NC(=O)[C@H](CO)NC(=O)[C@H](Cc1c[nH]c2ccccc12)NC(=O)[C@H](Cc1c[nH]cn1)NC(=O)[C@@H]1CCC(=O)N1` [Leuprolide acetate, leuprolide acetate] as the compound, how does the “exposure levels at which the testosterone increase occurred” value (male beagle dogs) read?
A: The value was “at least 30 pg/ml”.

Q: And the “peak testosterone increase compared to baseline” value (male beagle dogs; FIGS. 1a, b)?
A: The value was roughly 200%.

— patent US20170348231A1, “COMPOSITION AND METHOD FOR BUCCAL ADMINISTRATION OF GnRH AGONISTS” (NHTherapeutics INC, priority 2016, published 2017)
